SMILES strings stand for the structures.

The record followed here is ChEMBL document CHEMBL1909046, “DrugMatrix in vitro pharmacology data”.

Experiment [1] can be described thus: DRUGMATRIX: Sigma2 radioligand binding (ligand: [3H] Ifenprodil). The following applies: Not Active = under 50% inhibition at 10 µM. The class given is cell membranes, Rattus norvegicus, Wistar, Brain, Membrane.
Experiment [2] is described as follows: DRUGMATRIX: ATPase, Na+/K+ enzyme inhibition (substrate: ATP). It counts as tissue-based, Sus scrofa, Heart. The note with it: Not Active = under 50% inhibition at 10 µM.
Experiment [3] has as its target T1, Adenosine receptor A3 (Homo sapiens, UniProt P0DMS8).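 Further: radioligand binding assay with AB-MECA serving as the labeled ligand; in other assays of this panel Not Active means under 50% inhibition at 10 µM.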
T1 sequence (P0DMS8 whole entry): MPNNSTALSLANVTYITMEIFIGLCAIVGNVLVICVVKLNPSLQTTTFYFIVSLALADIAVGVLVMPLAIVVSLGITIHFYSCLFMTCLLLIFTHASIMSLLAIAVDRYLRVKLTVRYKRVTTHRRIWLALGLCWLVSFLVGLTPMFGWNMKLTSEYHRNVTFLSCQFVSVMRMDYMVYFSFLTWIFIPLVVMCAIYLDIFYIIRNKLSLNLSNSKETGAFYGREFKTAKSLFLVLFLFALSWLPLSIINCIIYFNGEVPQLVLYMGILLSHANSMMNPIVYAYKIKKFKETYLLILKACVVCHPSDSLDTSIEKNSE
The class given is cell membranes, CHO-K1, Membrane.

Experiment [4] has as its target T2, Type-2 angiotensin II receptor (Homo sapiens, UniProt P50052). Further: in other assays of this panel Not Active means under 50% inhibition at 10 µM.
T2 sequence (P50052 whole entry): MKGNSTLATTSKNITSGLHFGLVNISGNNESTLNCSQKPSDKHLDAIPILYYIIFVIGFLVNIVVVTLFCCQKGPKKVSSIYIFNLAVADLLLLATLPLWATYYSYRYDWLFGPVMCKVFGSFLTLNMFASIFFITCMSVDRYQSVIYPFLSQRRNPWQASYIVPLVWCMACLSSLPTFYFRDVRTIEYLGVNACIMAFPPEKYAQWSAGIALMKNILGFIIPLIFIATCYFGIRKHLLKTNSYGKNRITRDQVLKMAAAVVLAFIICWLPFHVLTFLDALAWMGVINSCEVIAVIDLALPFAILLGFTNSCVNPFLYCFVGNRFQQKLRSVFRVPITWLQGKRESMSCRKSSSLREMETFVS
It counts as cell-based. The following applies: cho-k1.

Experiment [5] deals with T3, Receptor-type tyrosine-protein phosphatase C (Homo sapiens, UniProt P08575).
T3 sequence (P08575 whole entry): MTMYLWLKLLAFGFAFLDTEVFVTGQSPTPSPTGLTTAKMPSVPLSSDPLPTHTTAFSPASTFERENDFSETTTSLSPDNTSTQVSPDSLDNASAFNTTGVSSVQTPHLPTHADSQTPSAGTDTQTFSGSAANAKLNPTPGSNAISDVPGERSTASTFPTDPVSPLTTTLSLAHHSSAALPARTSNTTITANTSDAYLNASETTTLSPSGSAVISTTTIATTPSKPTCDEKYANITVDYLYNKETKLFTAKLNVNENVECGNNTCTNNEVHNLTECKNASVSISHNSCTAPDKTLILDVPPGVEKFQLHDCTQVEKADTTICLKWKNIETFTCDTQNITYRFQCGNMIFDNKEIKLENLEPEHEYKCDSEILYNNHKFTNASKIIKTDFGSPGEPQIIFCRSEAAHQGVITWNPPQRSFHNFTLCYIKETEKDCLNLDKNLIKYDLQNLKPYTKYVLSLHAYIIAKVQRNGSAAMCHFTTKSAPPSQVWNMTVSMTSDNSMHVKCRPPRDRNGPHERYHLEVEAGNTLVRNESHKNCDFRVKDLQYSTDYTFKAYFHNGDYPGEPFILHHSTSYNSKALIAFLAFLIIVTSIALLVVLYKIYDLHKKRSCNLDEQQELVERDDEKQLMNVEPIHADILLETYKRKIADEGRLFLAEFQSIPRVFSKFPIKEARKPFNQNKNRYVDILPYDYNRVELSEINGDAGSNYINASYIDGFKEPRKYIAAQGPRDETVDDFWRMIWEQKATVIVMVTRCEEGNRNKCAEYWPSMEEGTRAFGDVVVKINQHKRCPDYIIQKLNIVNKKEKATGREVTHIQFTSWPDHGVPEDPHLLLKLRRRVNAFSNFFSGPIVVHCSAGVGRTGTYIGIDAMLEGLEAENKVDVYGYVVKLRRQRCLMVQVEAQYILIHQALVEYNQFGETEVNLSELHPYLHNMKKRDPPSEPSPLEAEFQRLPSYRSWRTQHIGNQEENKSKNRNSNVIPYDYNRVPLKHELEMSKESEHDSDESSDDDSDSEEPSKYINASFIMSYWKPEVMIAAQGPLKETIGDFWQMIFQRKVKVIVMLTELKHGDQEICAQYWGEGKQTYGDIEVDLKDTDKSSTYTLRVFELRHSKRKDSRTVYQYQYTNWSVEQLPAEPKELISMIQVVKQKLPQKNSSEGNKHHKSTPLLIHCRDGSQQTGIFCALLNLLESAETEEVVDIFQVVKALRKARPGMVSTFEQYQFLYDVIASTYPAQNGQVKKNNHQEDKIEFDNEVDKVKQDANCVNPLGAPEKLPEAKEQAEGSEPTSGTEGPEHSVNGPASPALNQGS
Also noted: species or system Escherichia coli.

For experiment [6], the target named is Vasopressin V1a receptor (Homo sapiens, UniProt P37288). The class given is cell membranes, Membrane. The note with it: hek293. Further: in other assays of this panel Not Active means under 50% inhibition at 10 µM.
Experiment [7] deals with Kappa-type opioid receptor (Homo sapiens, UniProt P41145). Briefly: DRUGMATRIX: Opiate kappa (OP2, KOP) radioligand binding (ligand: [3H] Diprenorphine). It counts as cell membranes, HEK293, Membrane. The note with it: Not Active = under 50% inhibition at 10 µM.
Kappa-type opioid receptor, sequence (P41145 whole entry): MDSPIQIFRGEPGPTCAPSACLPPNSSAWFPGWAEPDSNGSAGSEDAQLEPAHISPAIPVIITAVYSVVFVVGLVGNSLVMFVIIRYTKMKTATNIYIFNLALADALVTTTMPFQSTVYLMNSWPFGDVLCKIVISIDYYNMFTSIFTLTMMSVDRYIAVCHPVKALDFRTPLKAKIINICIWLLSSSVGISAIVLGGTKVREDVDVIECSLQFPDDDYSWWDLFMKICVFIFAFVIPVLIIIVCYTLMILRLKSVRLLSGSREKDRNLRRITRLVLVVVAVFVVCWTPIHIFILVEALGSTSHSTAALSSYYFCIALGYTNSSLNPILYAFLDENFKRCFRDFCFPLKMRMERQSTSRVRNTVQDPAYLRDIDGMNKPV

Vasopressin V1a receptor, sequence (P37288 whole entry): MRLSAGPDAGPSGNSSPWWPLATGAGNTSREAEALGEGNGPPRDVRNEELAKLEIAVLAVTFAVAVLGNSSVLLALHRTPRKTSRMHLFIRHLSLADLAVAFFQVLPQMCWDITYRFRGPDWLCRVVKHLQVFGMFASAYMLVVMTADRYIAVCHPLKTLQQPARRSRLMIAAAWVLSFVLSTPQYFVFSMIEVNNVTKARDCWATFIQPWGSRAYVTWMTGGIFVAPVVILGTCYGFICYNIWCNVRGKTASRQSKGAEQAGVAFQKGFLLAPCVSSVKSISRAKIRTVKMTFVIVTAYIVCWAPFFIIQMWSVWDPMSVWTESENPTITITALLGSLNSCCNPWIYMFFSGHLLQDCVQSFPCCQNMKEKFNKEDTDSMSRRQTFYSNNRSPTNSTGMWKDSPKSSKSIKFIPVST

Take `C[C@H](C(=O)O)c1ccc2oc(-c3ccc(F)cc3)nc2c1` [FLUNOXAPROFEN]: the IC50 result in experiment [1], in experiment [2], in experiment [3] (cho-k1), in experiment [4], in experiment [5] and in experiment [6] was “Not Active” each time. The IC50 (in general, the midpoint of a concentration-inhibition curve) in experiment [7] (hek293) is listed as “Not Active”. For the same compound, the Ki result in experiment [1] and in experiment [2] was “Not Active” each time.
On to `NS(=O)(=O)c1cc(C(=O)O)c(NCc2ccco2)cc1Cl` [FUROSEMIDE], for which the IC50 result in experiment [1], in experiment [2], in experiment [3] (cho-k1), in experiment [4], in experiment [5] and in experiment [6] was “Not Active” in each case. In addition, the IC50 entry in experiment [7] (hek293) was “Not Active”. In addition, the Ki entry in experiment [1] and in experiment [2] was “Not Active” throughout.
Take `COc1ccc(Cl)cc1C(=O)NCCc1ccc(S(=O)(=O)NC(=O)NC2CCCCC2)cc1` [GLYBURIDE]: the IC50 entry in experiment [1], in experiment [2], in experiment [3] (cho-k1), in experiment [4], in experiment [5] and in experiment [6] was “Not Active” in each case. Also, in experiment [7] (hek293), the IC50 entry is listed as “Not Active”. The Ki result in experiment [1] and in experiment [2] was “Not Active” each time.
Take `O=C(O)CO` [GLYCOLIC ACID]: the IC50 result in experiment [1], in experiment [2], in experiment [3] (cho-k1), in experiment [4], in experiment [5] and in experiment [6] was “Not Active” throughout. In experiment [7] (hek293), the IC50 entry is on record as “Not Active”. The Ki result in experiment [1] and in experiment [2] was “Not Active” in each case.
Consider `Clc1cc(Cl)c(OCC#CI)cc1Cl` [HALOPROGIN], for which the IC50 result is “Not Active” in experiment [1]; “Not Active” in experiment [2]; 0.223 µM in experiment [3] (read-out: IC50); “Not Active” in experiment [4]; “Not Active” in experiment [5]; “Not Active” in experiment [6]. Further, in experiment [7] (read-out: IC50), the IC50 worked out at 1.15 µM. Moreover, the inhibition constant Ki (usually the equilibrium dissociation constant of an inhibitor or competing ligand from its target) in experiment [1] was “Not Active”; in experiment [2] it was “Not Active”; in experiment [3] (read-out: Ki), 0.126 µM; in experiment [7], 0.459 µM.
For `COC(=O)C[C@](O)(CCC(C)(C)O)C(=O)O[C@@H]1C(OC)=C[C@]23CCCN2CCc2cc4c(cc2[C@H]13)OCO4` [HARRINGTONINE], the IC50 entry in experiment [1], in experiment [2], in experiment [3] (cho-k1), in experiment [4], in experiment [5] and in experiment [6] was “Not Active” throughout. Besides, in experiment [7] (hek293), the IC50 result is “Not Active”. Also, the Ki entry in experiment [1] and in experiment [2] was “Not Active” each time.
As for `CCN(CCO)CCCC(C)Nc1ccnc2cc(Cl)ccc12` (configuration not stated) [HYDROXYCHLOROQUINE], the IC50 result in experiment [1], in experiment [2], in experiment [3] (cho-k1), in experiment [4], in experiment [5] and in experiment [6] was “Not Active” each time. Moreover, in experiment [7] (hek293), the IC50 entry was “Not Active”. Moreover, the Ki result in experiment [1] and in experiment [2] was “Not Active” each time.
For the compound `CC(=O)[C@]1(O)Cc2c(O)c3c(c(O)c2[C@@H](O[C@H]2C[C@H](N)[C@H](O)[C@H](C)O2)C1)C(=O)c1ccccc1C3=O` [IDARUBICIN], the IC50 entry in experiment [1], in experiment [2], in experiment [3] (cho-k1), in experiment [4], in experiment [5] and in experiment [6] was “Not Active” in each case. Also, the IC50 result in experiment [7] (hek293) was “Not Active”. Further, the Ki entry in experiment [1] and in experiment [2] was “Not Active” in each case.
For the compound `CC(C)Cn1cnc2c(N)nc3ccccc3c21` [IMIQUIMOD], the IC50 result in experiment [1], in experiment [2], in experiment [3] (cho-k1), in experiment [4], in experiment [5] and in experiment [6] was “Not Active” each time. In experiment [7] (hek293), the IC50 entry is listed as “Not Active”. The inhibition constant (Ki) entry in experiment [1] and in experiment [2] was “Not Active” throughout.
`O=C(NCCN1CCOCC1)c1ccc(Cl)cc1` [MOCLOBEMIDE]: the IC50 result in experiment [1], in experiment [2], in experiment [3] (cho-k1), in experiment [4], in experiment [5] and in experiment [6] was “Not Active” throughout. In addition, the IC50 result in experiment [7] (hek293) was “Not Active”. Also, the Ki result in experiment [1] and in experiment [2] was “Not Active” in each case.
On to `Cc1ccnc2c1NC(=O)c1cccnc1N2C1CC1` [NEVIRAPINE], for which the IC50 entry in experiment [1], in experiment [2], in experiment [3] (cho-k1), in experiment [4], in experiment [5] and in experiment [6] was “Not Active” each time. The IC50 result in experiment [7] (hek293) was “Not Active”. Moreover, the Ki entry in experiment [1] and in experiment [2] was “Not Active” each time.
As for `O=C1CN(/N=C/c2ccc([N+](=O)[O-])o2)C(=O)N1` [NITROFURANTOIN], the IC50 entry in experiment [1], in experiment [2], in experiment [3] (cho-k1), in experiment [4], in experiment [5] and in experiment [6] was “Not Active” in each case. In addition, in experiment [7] (hek293), the IC50 entry is “Not Active”. The Ki entry in experiment [1] and in experiment [2] was “Not Active” throughout.
For `C#C[C@]1(O)CC[C@H]2[C@@H]3CCC4=CC(=O)CC[C@@H]4[C@H]3CC[C@@]21C` [NORETHINDRONE], the IC50 result in experiment [1], in experiment [2], in experiment [3] (cho-k1), in experiment [4], in experiment [5] and in experiment [6] was “Not Active” in each case. In experiment [7] (hek293), the IC50 result is reported as “Not Active”. The Ki result in experiment [1] and in experiment [2] was “Not Active” in each case.
For the compound `O=C(O)CCc1nc(-c2ccccc2)c(-c2ccccc2)o1` [OXAPROZIN], the IC50 entry in experiment [1], in experiment [2], in experiment [3] (cho-k1), in experiment [4], in experiment [5] and in experiment [6] was “Not Active” each time. Besides, the IC50 result in experiment [7] (hek293) is given as “Not Active”. In addition, the Ki entry in experiment [1] and in experiment [2] was “Not Active” throughout.
As to `Cc1cc(C(C)(C)C)c(O)c(C)c1CC1=NCCN1` [OXYMETAZOLINE], the IC50 entry in experiment [1], in experiment [2], in experiment [3] (cho-k1), in experiment [4], in experiment [5] and in experiment [6] was “Not Active” each time. Also, the IC50 entry in experiment [7] (hek293) is on record as “Not Active”. In addition, the Ki result in experiment [1] and in experiment [2] was “Not Active” throughout.
